The source of these data is patent US20100247564A1, “METHODS AND COMPOSITIONS FOR THE USE OF SARGASSUM FUSIFORME FOR THE INHIBITION OF HIV-1 INFECTION” (priority 2007, published 2010).

Read-outs that look alike come from different tables or passages of the source. Some results are limits rather than exact numbers.

The test system of data set [1] is cell fusion (anti-HIV activity). Put plainly: Inhibition of cell fusion by individual fatty acids. The data set is classed as cell-based. The conditions noted are these: Human immunodeficiency virus 1, read-out: percentage of inhibition of cell fusion; for inhibition at 1 µg/mL: 1 μg/ml; for inhibition at 5 µg/mL: 5 μg/ml. As for the experimental part: Anti-HIV activity of the individual fatty acids was tested at four different concentrations. The values given in Table 1 represent the percentage of inhibition of cell fusion in the presence of each fatty acid.

The target of data set [2] is T1, sCD4 (Homo sapiens, UniProt P01730).
T1 construct: soluble CD4 (sCD4) protein; purchased Progenics Pharmaceuticals
In words: Saturation transfer difference NMR (STD-NMR) binding to sCD4. The conditions noted are these: NMR buffer with 20% d6-DMSO, room temperature. As for the experimental part: FIGS. 15A-E show in vitro binding experiments of sCD4 with PA. FIG. 15A is a homonuclear NMR spectrum of 100 μM PA in the NMR buffer (10 mM KPO4 buffer, pH 7.0, 20% d6-DMSO, and 80% D2O). […] Tryptophan fluorescence was measured using an excitation wavelength of 280 nm. An increase of PA causes a red shift of 2 nm and quenching of the tryptophan fluorescence of sCD4.
We used a one-dimensional saturation transfer difference NMR (STD-NMR) experiment to characterize the binding of PA to sCD4 in vitro. […]
To perform the STD-NMR experiment, we used commercially available sCD4 (200 μg, 4.4 nmol, Progenics Pharmaceuticals), which was exchanged into the NMR buffer (160 μl of D2O and 40 μl d6-DMSO, containing 10 mM KPO4 buffer, pH 7.0). […] The NMR data were processed and analyzed using Topspin 2.0 (Bruker).
During the STD-NMR experiment, we titrated increasing concentrations of PA into sCD4 solution, and observed PA binding to sCD4, as shown by an increase in the intensity of the ligand STD-NMR signal (FIGS. 15A and 15B). The intensity of the STD signal was quantified by calculating the difference between the intensity of one signal in the off-resonance NMR spectrum, or reference NMR spectrum (I0), and the intensity of a signal in the on-resonance NMR spectrum (Isat) for various concentrations of the ligand (FIG. 15C). […]

A further data set concerns the target T2, recombinant HIV-1 RT (Human immunodeficiency virus type 1 group M subtype B, UniProt P04585).
T2 construct: recombinant HIV-1 RT; purchased Ambion
Put plainly: Cell-free fluorescent reverse transcriptase (RT) assay. The data set is classed as biochemical. The conditions noted are these: 2-fold serial dilutions, two units recombinant HIV-1 RT.

In data set [3] the test system is CXCR4 tropic HIV-1 (NL4-3). Put plainly: HIV-1 (NL4-3) replication in 1G5 T cells, luciferase expression. The data set is classed as cell-based.
A further data set deals with 1G5 T cells. Put plainly: Viability of HIV-1 infected 1G5 T cells (MTT uptake, trypan blue exclusion). The conditions noted are these: 10^−6 M ddC. It counts as cell-based. As for the experimental part: FIGS. 2A-B show the dose response of HIV-1 inhibition and cell viability in T cells treated with S. fusiforme. […] The cells were washed 3 times and then returned to culture. On day 3 after infection, intracellular luciferase gene marker expression was measured from cell lysates adjusted to the same number of viable cells using an MTT assay (A).
FIGS. 3A-B show the time course of HIV-1 inhibition and viability in T cells. […] Cell viability was determined by trypan blue exclusion assay (B).
Next, we investigated the ability of S. fusiforme extracts to inhibit HIV-1 infection in 1G5 T cells. […] On day 3 after infection, equal numbers of viable cells were analyzed for intracellular luciferase expression and cell viability was measured using an MTT uptake assay (FIG. 2). HIV-1 inhibition was calculated by comparing treated and untreated cell cultures (both infected with HIV-1). […] Treatment with ddC blocked virus replication by over 98%. In parallel, we tested for MTT uptake by viable cells, which remained high regardless of the concentration of S. fusiforme extract used in treatment (FIG. 2B).
Infection was monitored by luciferase expression at specific time points after infection (FIG. 3A). […] Treatment with 2 mg/ml of S. fusiforme inhibited infection by 77, 99, and 99% on days 3, 5, and 7, respectively (FIG. 3A). Inhibition by ddC was 99% at each time point tested. […]

Data set [4] has as its system primary CCR5-tropic isolate ADA. Put plainly: HIV-1 ADA infection of microglia, p24 ELISA. The conditions noted are these: Human immunodeficiency virus 1, Microglia, 72 h. (In general: In an ELISA, binding on a coated surface is turned into a signal by an enzyme label.)
Description: Either macrophages (A) or microglia (B) were treated for 24 hours with 1 mg/ml S. fusiforme or with 10^−6 M ddC, infected with primary CCR5-tropic isolate ADA at 0.2 pg of p24/cell for 2 hours, washed 3 times, and returned to culture. At the indicated time points after infection, HIV-1 expression was monitored by p24 production in cell-free supernatants by ELISA and the percent inhibition was calculated and plotted on the Y-axis.
Next, we treated fetal microglial cell cultures with either 1 mg/ml of S. fusiforme or 10^−6 M ddC and monitored infection kinetics by p24 production in cell-free supenatants at the indicated time points after infection (FIG. 5B).
Data set [5] relates to HIV-1 (NL4-3) cell-to-cell fusion. In words: Cell-to-cell infection and syncytia formation in co-culture (infected CEM/1G5; infected 1G5/GHOST). The following applies: only 10^−6 M ddC.
The target of data set [6] is T1, sCD4. Put plainly: Dot blot binding of 14C-labeled PA to sCD4. The conditions noted are these: 100 μM 14C-PA, increasing concentrations of sCD4. As for the experimental part:
(§1) FIGS. 14A-C show the inhibition of HIV-1 fusion and CD4 interaction upon PA treatment. […] The percent of infected cells is indicated inside each quadrant. Cells were loaded with CCF2/AM dye and fusion was analyzed by multiparameter flow cytometry using a violet laser for excitation of CCF, and gated from 10,000 cells. […] The percent inhibition was plotted on the y-axis. […] The dot-blot membrane was washed and exposed to film, which was then scanned and the dot-blot total pixel mean value (intensity*mm^2) was quantified and plotted on the y-axis.
(§2) To further test this hypothesis and reveal a possible physical interaction between PA and sCD4, we performed dot blot analysis with ^14C-labeled PA (^14C-PA) incubated together with increasing concentrations of sCD4, ubiquitin, or S100A12 proteins (FIG. 14C). PVDF membrane (BioRad) was pretreated with 100 μM PA for 1 hour at room temperature (RT). Indicated concentrations of each protein in 10 μl/well were run through the vacuum of the dot blot apparatus. The membrane was then incubated with 100 μM ^14C-labeled PA (^14C-PA) in 33% ethanol for 1 hour at room temperature, and then washed in 33% ethanol and exposed to film. Blot total pixel mean value intensity was quantified by Quantity One 4.6.1 software (BioRad).

The next data set concerns the target ubiquitin (Homo sapiens, UniProt P0CG47). In words: Dot blot binding of 14C-labeled PA to ubiquitin. The conditions noted are these: 100 μM 14C-PA. As for the experimental part: as §1, §2
The target in another data set is T3, S100A12 (Homo sapiens, UniProt P80511).
T3 sequence (P80511 1-92): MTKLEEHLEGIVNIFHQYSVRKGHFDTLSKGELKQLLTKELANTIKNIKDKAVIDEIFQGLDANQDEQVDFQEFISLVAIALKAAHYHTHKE
Put plainly: Dot blot binding of 14C-labeled PA to S100A12. The conditions noted are these: 100 μM 14C-PA. As for the experimental part: as §1, §2

The next data set has as its system BlaM-Vpr-X4-tropic NL4-3. In words: microbe, parasite or virus in culture. The data set is classed as cell-based, HIV-1.
Where [7] appears, read: Human immunodeficiency virus 1, NL43, SUP-T1, read-out: inhibition of fusion.

Take `CCCCCCCCCCCCCC(=O)O` [Myristic acid, myristic acid]: in data set [1], the inhibition (commonly the percentage by which the read-out fell short of the control) at 1 µg/mL was 8.8% and the inhibition at 5 µg/mL amounted to 26.4%. For the same compound, at sCD4 [2], the “STD-NMR signal on titration into sCD4 solution” value is reported as “No STD-NMR signal was observed”.

In the case of `CCCCCCCC/C=C\CCCCCCCC(=O)O` [Oleic acid, oleic acid], the “RT inhibition (in words)” value on recombinant HIV-1 RT is reported as “potent RT inhibitors”. Also, in data set [1], the inhibition at 1 µg/mL turned out to be 0% and the inhibition at 5 µg/mL was determined as 0%.

With `Nc1ccn([C@H]2CC[C@@H](CO)O2)c(=O)n1` [ddC, 2′,3′-didoxycytidine], the virus replication blocked entry in [3] (10^−6 M ddC, day 3 after infection) was “over 98%”. Moreover, the inhibition at 1 µM is 99% in [3] (Human immunodeficiency virus 1, NL43, T-cell, read-out: inhibition of infection); greater than 90% in data set [4] (read-out: virus inhibition, 10^−6 M ddC, after day 3); 72% in data set [4] (read-out: virus inhibition, 10^−6 M ddC, day 3). Besides, the luciferase expression in [3] (ddC control culture, mock-treated 29,601 RLU) was 587 RLU. For the same compound, the “cell viability compared with S. fusiforme-treated cultures” value in the data set on 1G5 T cells is “similar”. The “inhibition of luciferase expression” value in [5] was determined as 69%.

Turning to `CCCCCCCCCCCCCCCC(=O)O` [^14C-PA], at sCD4 [6], the “binding to sCD4 (dot blot)” value is on record as “dose-dependent”. Also, at ubiquitin, the “binding to ubiquitin (dot blot)” value is “did not bind”. In addition, the “binding to S100A12 (dot blot)” value on S100A12 was “did not bind”.

As to `c1cc(CN2CCCNCCNCCCNCC2)ccc1CN1CCCNCCNCCCNCC1` [AMD3100, reference compound], in the data set on BlaM-Vpr-X4-tropic NL4-3 (250 nM AMD3100, 51.5% without treatment), the fusion positive cells is 28.7%. This compound came in with a virus-positive cells with BlaM-Vpr-X4-tropic NL4-3 (AMD3100 in the PA experiment, 37.6% untreated) of 2.8%. In addition, in the data set with BlaM-Vpr-X4-tropic NL4-3 (setting [7]), the inhibition at 0.25 µM was 44.5% and the inhibition at 0.5 µM worked out at 80%.

For `CCCCC/C=C\C/C=C\CCCCCCCC(=O)O` [Linoleic acid, linoleic acid], on recombinant HIV-1 RT, the “RT inhibition (in words)” value is “potent RT inhibitors”. In [1], the inhibition at 1 µg/mL worked out at 0% and the inhibition at 5 µg/mL came to 0%.
